Results taken from patent US7109296B2, “Human 5-HT3-C protein” (Ortho-McNeil Pharmaceutical, Inc., priority 1999, dated 2006).

What was measured:
Assay type in all cases: cell-based
[1] = molecular target: T1, human 5-HT3-A(short) receptor (Homo sapiens, UniProt P46098); experiment: Two-electrode voltage clamp, oocytes expressing 5-HT3-A(short) homomeric receptors
T1 sequence (P46098 24-478): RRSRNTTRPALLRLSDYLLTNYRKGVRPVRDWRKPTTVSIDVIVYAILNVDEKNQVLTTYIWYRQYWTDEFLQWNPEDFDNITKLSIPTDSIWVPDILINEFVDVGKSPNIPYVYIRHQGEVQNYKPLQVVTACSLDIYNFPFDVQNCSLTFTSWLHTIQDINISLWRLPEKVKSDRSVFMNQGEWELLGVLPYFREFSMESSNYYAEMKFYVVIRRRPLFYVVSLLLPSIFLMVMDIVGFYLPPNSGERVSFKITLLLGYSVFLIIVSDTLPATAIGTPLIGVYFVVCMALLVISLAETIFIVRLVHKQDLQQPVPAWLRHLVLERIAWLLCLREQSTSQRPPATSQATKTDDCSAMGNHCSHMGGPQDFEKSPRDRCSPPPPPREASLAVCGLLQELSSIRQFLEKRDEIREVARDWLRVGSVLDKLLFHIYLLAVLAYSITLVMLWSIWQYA

[2] = molecular target: T2, human 5-HT3-A(short) together with 5-HT3-C (Homo sapiens, UniProt P46098); experiment: Two-electrode voltage clamp, oocytes co-injected with 5-HT3-A(short) and 5-HT3-C
T2 construct: Characterization of the Function of Protein Encoded by p5HT3CR in Xenopus oocvtes; expressed in transfected cells; host or cells: Xenopus laevis oocytes co-injected with cRNAs
T2 sequence (P46098 24-478): T1 sequence (P46098 24-478)
Description: (§1) Characterization of the Function of Protein Encoded by p5HT3CR in Xenopus oocvtes Xenopus laevis oocytes were prepared and injected using standard methods previously described and known in the art (Fraser et al., 1993). Ovarian lobes from adult female Xenopus laevis (Nasco, Fort Atkinson, Wis.) were teased apart, rinsed several times in nominally Ca-free saline containing (in mM): NaCl 82.5, KCl 2.5, MgCl2 1, HEPES 5, adjusted to pH 7.0 with NaOH(OR-2), and gently shaken in OR-2 containing 0.2% collagenase Type 1 (ICN Biomedicals, Aurora, Ohio) for 2–5 hours. When approximately 50% of the follicular layers were removed, Stage V and VI oocytes were selected and rinsed in media consisting of 75% OR-2 and 25% ND-96. The ND-96 contained (in mM): NaCl 100, KCl 2, MgCl2 1, CaCl2 1.8, HEPES 5, Na pyruvate 2.5, gentamicin (50 ug/ml), adjusted to pH 7.0 with NaOH. […] For in vitro transcription, pGEM HE (Liman et al., 1992) containing human 5-HT3-A (Genbank D49394) or 5-HT3-C cDNA was linearized with NheI and transcribed with T7 RNA polymerase (Stratagene) in the presence of the cap analog m7G(5′)ppp(5′)G. The synthesized cRNA was purified with a Sephadex G-50 spin column. […] Control oocytes were injected with 50 nl of water. Oocytes were incubated for 2–14 days in ND-96 before analysis for expression of the human 5-HT3-C. Incubations and collagenase digestion were carried out at room temperature. Injected oocytes were maintained in 48 well cell culture clusters (Costar, Cambridge, Mass.) at 18° C. Whole cell agonist-induced currents were measured 1–14 days after injection with a conventional two-electrode voltage clamp (GeneClamp500, Axon Instruments, Foster City, Calif.) using standard methods previously described and known in the art (Dascal, 1987). The microelectrodes were filled with 3 M KCl, which had resistances of 1 and 2 MΩ. Cells were continuously perfused with ND96 at 10 ml/min at room temperature unless indicated. Membrane voltage was clamped at −70 mV unless indicated.
Functional expression of human serotonin 5-HT3 receptor modifier subunit 5-HT3-C together with the human short form of the 5-HT3-A receptor (Genbank accession # D49394) in Xenopus oocytes is shown in FIGS. 4 and 5. Agonist was applied during the time indicated by the horizontal bar above the record. […] As a positive control for translation and surface expression, all oocytes were co-injected with a Shaker potassium channel N-terminal deletion mutant that lacks fast inactivation. […] Oocytes were continuously perfused with Ba^2+ containing ND96 at a rate of 10 ml/min at room temperature. Time scale bar: 25 sec. Similar results were obtained in experiments in which oocytes were bathed in Ca^2+ containing ND96.

human 5-HT3-C = molecular target: T3, human 5-HT3-C (Homo sapiens, UniProt Q8WXA8); experiment: Two-electrode voltage clamp, Xenopus oocytes injected with 5-HT3-C cRNA alone
T3 construct: Characterization of the Function of Protein Encoded by p5HT3CR in Xenopus oocvtes; expressed in transfected cells; host or cells: Xenopus laevis oocytes injected with in vitro transcribed cRNA (pGEM HE)
T3 sequence (Q8WXA8 28-447): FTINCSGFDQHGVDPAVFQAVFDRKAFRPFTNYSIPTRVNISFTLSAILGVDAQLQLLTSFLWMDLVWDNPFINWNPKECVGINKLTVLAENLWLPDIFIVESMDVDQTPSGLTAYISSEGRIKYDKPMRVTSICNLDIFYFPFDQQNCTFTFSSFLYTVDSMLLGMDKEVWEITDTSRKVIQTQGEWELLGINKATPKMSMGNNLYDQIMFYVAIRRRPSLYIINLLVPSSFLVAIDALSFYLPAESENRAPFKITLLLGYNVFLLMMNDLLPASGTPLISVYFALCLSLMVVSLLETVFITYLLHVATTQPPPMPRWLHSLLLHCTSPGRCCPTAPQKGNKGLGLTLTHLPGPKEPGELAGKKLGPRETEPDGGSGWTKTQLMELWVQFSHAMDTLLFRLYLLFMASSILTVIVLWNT
Description: as §1

NCCc1c[nH]c2ccc(O)cc12 [5-HT, 5-hydroxytryptamine]
peak currents to 5-HT ([1]; 5-HT3-A(short)-expressing oocytes, comparison for 2:1 ratio, n=19): −1.65+/−0.42 nA
Responses to 5-HT ([1]; 10 LM 5-HT, 5-HT3-A(short)-injected oocytes (0.33 ng), n=6): −3.89+/−0.76 nA
peak response to 5-HT ([2]; 10 μM 5-HT, 2-fold more 5-HT3-C cRNA (0.67 ng), control = 5-HT3-A homomeric): about 10 % of control
effect of 5-HT3-C on 5-HT response ([2]; 1:1 ratio, n=6): little effect
5-HT response diminished ([2]; 1.8×fold 5-HT3-C to 5-HT3-A cRNA concentration, n=3): about 20%
peak currents to 5-HT ([2]; 5-HT3-C and 5-HT3-A(short) at a ratio of 2:1, n=20): −0.028+/−0.007 nA
sensitivity of oocytes to 5-HT ([2]; 5-HT3-C:5-HT3-A(short) 10:1): essentially insensitive
Responses to 5-HT ([2]; 10 LM 5-HT, 5-HT3-C:5-HT3-A(short) 10:1 (3.35 ng : 0.33 ng), n=6): −0.010+/−0.008 nA
sensitivity of oocytes to neuroactive compound (human 5-HT3-C; >100 μM, only 5-HT3-C cRNA (33.5 ng), n=5): insensitive
effect of agonist (agonist-induced current) (human 5-HT3-C; ≧100 μM, 33.5 ng or 3.35 ng 5-HT3-C cRNA/oocyte): no effect
